In PubChem BioAssay (NCI):
Where “and” joins values, the source holds several entries; their conditions need not be identical. Equal values may be shown once.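 96-well plates; 48 h exposure; 5 concentrations. Endpoints by linear interpolation between flanking doses. Not reached: highest tested concentration assigned. Abbreviation: GI50, concentration required for 50% inhibition of growth. TGI denotes the concentration required for complete inhibition of growth.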

What was measured:
Assay in all cases: DTP human tumour cell line panel, 48 h
SW-620 colon = test system: SW-620 colon
OVCAR-4 ovarian = test system: OVCAR-4 ovarian
UO-31 renal = test system: UO-31 renal
SF-539 CNS = test system: SF-539 CNS
KM12 colon = test system: KM12 colon
MOLT-4 leukemia = test system: MOLT-4 leukemia
SK-MEL-28 melanoma = test system: SK-MEL-28 melanoma
IGROV1 ovarian = test system: IGROV1 ovarian
NCI-H522 lung = test system: NCI-H522 lung
HCT-116 colon = test system: HCT-116 colon

## O=C([CH-]C(=O)c1ccccc1)c1ccccc1.O=C([CH-]C(=O)c1ccccc1)c1ccccc1.O=C([CH-]C(=O)c1ccccc1)c1ccccc1.[Nd+3].[OH3+]
SW-620 colon
  GI50: 4.1 µM
  TGI: 26.4 µM
OVCAR-4 ovarian
  GI50: 6.63 µM
  TGI: 51.7 µM
UO-31 renal
  GI50: 2.85 µM
  TGI: 8.19 µM
SF-539 CNS
  GI50: 13.7 µM
  TGI: 45.9 µM
KM12 colon
  GI50: 6.02 µM
  TGI: 37.9 µM
MOLT-4 leukemia
  GI50: 2.24 µM
  TGI: 12.5 µM
SK-MEL-28 melanoma
  GI50: 7.74 µM
  TGI: 30.4 µM
IGROV1 ovarian
  GI50: 6.72 µM
  TGI: 49.8 µM
NCI-H522 lung
  GI50: 2.06 µM
  TGI: 7.28 µM
HCT-116 colon
  GI50: 4.92 µM
  TGI: 19.1 µM

## COc1cc(/C=C2\CCC/C(=C\c3cc(OC)c(O)c(OC)c3)C2=O)cc(OC)c1O
SW-620 colon
  TGI: 75 µM and > 100 µM
OVCAR-4 ovarian
  GI50: 8.24 µM
  TGI: 75 µM and > 100 µM
UO-31 renal
  GI50: 2.05 µM
  TGI: 3.46 µM and 4.97 µM
SF-539 CNS
  TGI: > 100 µM
KM12 colon
  TGI: 8.33 µM
MOLT-4 leukemia
  GI50: 2.97 µM
  TGI: 75 µM and 36.5 µM
SK-MEL-28 melanoma
  GI50: 3.12 µM
  TGI: 75 µM and 24.8 µM
IGROV1 ovarian
  TGI: 3.89 µM
NCI-H522 lung
  GI50: 1.24 µM
  TGI: 3.5 µM and 2.85 µM
HCT-116 colon
  GI50: 2.56 µM

## COc1ccc(-c2nc3sc(-c4ccc(Cl)cc4)cn3n2)cc1
SW-620 colon
  GI50: 5.51 µM
  TGI: > 50 µM
OVCAR-4 ovarian
  GI50: 0.766 µM
  TGI: 1.63 µM
UO-31 renal
  GI50: 1.19 µM
  TGI: 4.51 µM
SF-539 CNS
  GI50: 1.85 µM
  TGI: 21.5 µM
KM12 colon
  GI50: 12.2 µM
  TGI: > 50 µM
MOLT-4 leukemia
  GI50: 11.3 µM
  TGI: > 50 µM
SK-MEL-28 melanoma
  GI50: > 50 µM
  TGI: > 50 µM
IGROV1 ovarian
  GI50: 1.15 µM
  TGI: 8.13 µM
NCI-H522 lung
  GI50: 14.9 µM
  TGI: > 50 µM
HCT-116 colon
  GI50: 1.21 µM
  TGI: 3.48 µM

## C/C(=N\O)c1cccc(Nc2cc(-n3ccnn3)c3ccccc3n2)c1
SW-620 colon
  GI50: 21.1 µM
  TGI: 50.6 µM
OVCAR-4 ovarian
  GI50: 0.25 µM
  TGI: 27.8 µM
UO-31 renal
  GI50: 16.2 µM
  TGI: 37.5 µM
SF-539 CNS
  GI50: 19 µM
  TGI: 44 µM
KM12 colon
  GI50: 15.1 µM
  TGI: 33.3 µM
MOLT-4 leukemia
  GI50: 11.6 µM
  TGI: 28.2 µM
SK-MEL-28 melanoma
  GI50: 0.444 µM
  TGI: 30.2 µM
IGROV1 ovarian
  GI50: 12.6 µM
  TGI: 27.7 µM
NCI-H522 lung
  GI50: 13.2 µM
  TGI: 28.9 µM
HCT-116 colon
  GI50: 14.1 µM
  TGI: 27.1 µM

## CCC(=O)O[C@H]1CC[C@H]2[C@@H]3CC[C@H]4CC(=O)[C@H](C)C[C@]4(C)[C@H]3CC[C@]12C
SW-620 colon
  GI50: 31.9 µM
  TGI: > 100 µM
OVCAR-4 ovarian
  GI50: > 79.1 µM
  TGI: > 100 µM
UO-31 renal
  GI50: 24.5 µM
  TGI: > 100 µM
SF-539 CNS
  GI50: > 83.5 µM
  TGI: > 100 µM
KM12 colon
  GI50: 34.6 µM
  TGI: > 100 µM
MOLT-4 leukemia
  GI50: 9.11 µM
  TGI: > 85.6 µM
SK-MEL-28 melanoma
  GI50: > 88.7 µM
  TGI: > 100 µM
IGROV1 ovarian
  GI50: > 60.5 µM
  TGI: > 100 µM
NCI-H522 lung
  GI50: 38.4 µM
  TGI: > 100 µM
HCT-116 colon
  GI50: 4.49 µM
  TGI: > 42.6 µM

## O=C1C(c2c[nH]c3ccccc23)=C(c2c[nH]c3ccccc23)C(=O)N1O
SW-620 colon
  GI50: > 25 µM
  TGI: > 25 µM
OVCAR-4 ovarian
  GI50: > 25 µM
  TGI: > 25 µM
UO-31 renal
  GI50: 5.78 µM
  TGI: > 25 µM
SF-539 CNS
  GI50: > 25 µM
  TGI: > 25 µM
KM12 colon
  GI50: > 25 µM
  TGI: > 25 µM
MOLT-4 leukemia
  GI50: > 25 µM
  TGI: > 25 µM
SK-MEL-28 melanoma
  GI50: > 25 µM
  TGI: > 25 µM
IGROV1 ovarian
  GI50: > 25 µM
  TGI: > 25 µM
NCI-H522 lung
  GI50: > 25 µM
  TGI: > 25 µM
HCT-116 colon
  GI50: > 25 µM
  TGI: > 25 µM

## O=C(Nc1ccc(F)cc1)c1ccc(NC2=C(Cl)C(=O)N(Cc3ccccc3)C2=O)cc1
SW-620 colon
  GI50: 4.54 µM
  TGI: > 100 µM
OVCAR-4 ovarian
  GI50: 16.5 µM
  TGI: 39.6 µM
UO-31 renal
  GI50: 10.5 µM
  TGI: 23.4 µM
SF-539 CNS
  GI50: 11.2 µM
  TGI: 26.7 µM
KM12 colon
  GI50: 15.9 µM
  TGI: 38 µM
MOLT-4 leukemia
  GI50: 3.79 µM
  TGI: 21 µM
SK-MEL-28 melanoma
  GI50: 16.5 µM
  TGI: 39.5 µM
IGROV1 ovarian
  GI50: 1.06 µM
  TGI: 3.58 µM
NCI-H522 lung
  GI50: 7.27 µM
  TGI: 28.8 µM
HCT-116 colon
  GI50: 2.23 µM
  TGI: 4.82 µM

## COC(=O)C1C(O)CC(c2ccccn2)N(Cc2ccccc2)C1c1ccccn1 (stereo not given)
SW-620 colon
  TGI: > 100 µM
OVCAR-4 ovarian
  TGI: > 100 µM
UO-31 renal
  TGI: > 100 µM
SF-539 CNS
  TGI: > 100 µM
KM12 colon
  TGI: > 100 µM
MOLT-4 leukemia
  TGI: > 100 µM
SK-MEL-28 melanoma
  TGI: > 100 µM
IGROV1 ovarian
  TGI: > 100 µM
NCI-H522 lung
  TGI: > 100 µM
HCT-116 colon
  TGI: > 100 µM

## O=Cc1ccccc1OCCOc1cc(OCCOc2ccccc2C=O)c(OCCOc2ccccc2C=O)cc1OCCOc1ccccc1C=O
SW-620 colon
  TGI: > 100 µM
OVCAR-4 ovarian
  TGI: > 100 µM
UO-31 renal
  TGI: > 100 µM
SF-539 CNS
  TGI: > 79 µM
KM12 colon
  TGI: > 100 µM
MOLT-4 leukemia
  TGI: > 100 µM
SK-MEL-28 melanoma
  TGI: > 100 µM
IGROV1 ovarian
  TGI: > 100 µM
NCI-H522 lung
  TGI: > 100 µM
HCT-116 colon
  TGI: > 71.2 µM

## COc1ccc(-c2oc3c(OC)c(OC)c(OC)c(O)c3c(=O)c2OC)cc1OC
SW-620 colon
  TGI: > 66.1 µM
OVCAR-4 ovarian
  TGI: > 100 µM
UO-31 renal
  TGI: > 78.7 µM
SF-539 CNS
  TGI: > 71.4 µM
KM12 colon
  TGI: > 100 µM
MOLT-4 leukemia
  TGI: 51.9 µM
SK-MEL-28 melanoma
  TGI: > 100 µM
IGROV1 ovarian
  TGI: 23.2 µM
NCI-H522 lung
  TGI: 44.6 µM
HCT-116 colon
  TGI: > 100 µM

## CC(C)CNCC(O)COc1ccc(C(C)(C)c2ccc(OCC(O)CNCC(C)C)cc2)cc1 (stereo not given)
SW-620 colon
  GI50: 1.72 µM
  TGI: 3.46 µM
OVCAR-4 ovarian
  GI50: 6.52 µM
  TGI: 21.4 µM
UO-31 renal
  GI50: 1.53 µM
  TGI: 2.89 µM
SF-539 CNS
  GI50: 1.71 µM
  TGI: 3.23 µM
KM12 colon
  GI50: 2.38 µM
  TGI: 7.41 µM
MOLT-4 leukemia
  GI50: 2.03 µM
  TGI: 5.16 µM
SK-MEL-28 melanoma
  GI50: 1.8 µM
  TGI: 3.69 µM
IGROV1 ovarian
  GI50: 3.66 µM
  TGI: 15.5 µM
NCI-H522 lung
  GI50: 1.87 µM
  TGI: 3.82 µM
HCT-116 colon
  GI50: 1.79 µM
  TGI: 3.59 µM
